# From ChEMBL document CHEMBL3639325, “Fused tricyclic dual inhibitors of CDK 4/6 and FLT3” (2014)
# Key:
# [1] = biological target: Cyclin-dependent kinase 4 (Homo sapiens, UniProt P11802); assay: Kinase Assay: The CDK4 and CDK1 inhibitory activity of the CDK4/6-FLT3 inhibitors was determined with a filtration kinase assay. The compounds, kinase and substrate diluted in the kinase buffer (20 mM Tris, pH7.4, 50 mM NaCl, 1 mM DTT, 0.1% BSA) were sequentially added to a 96-well Multiscreen HTS filtration plate (Millipore). The final 100 μL reaction mixture in each well contained 0.3 μg of CDK4/Cyclin D1 or CDK1/Cyclin B (Cell Signaling Technology), 1 μg of Rb fragment (aa773-928, Millipore) for the CDK4 assay or 5 μg of histone H1 for the CDK1 assay and 1 μCi of [33P]-ATP. The mixture was incubated at room temperature for 1 hour. The proteins in the reaction were then precipitated and washed with cold TCA solution using an aspiration/filtration vacuum system. The plates were dried at room temperature, and the retained radioactivity was measured by scintillation counting.
# Chain of Cyclin-dependent kinase 4 (P11802 whole entry, the tested form may be a part): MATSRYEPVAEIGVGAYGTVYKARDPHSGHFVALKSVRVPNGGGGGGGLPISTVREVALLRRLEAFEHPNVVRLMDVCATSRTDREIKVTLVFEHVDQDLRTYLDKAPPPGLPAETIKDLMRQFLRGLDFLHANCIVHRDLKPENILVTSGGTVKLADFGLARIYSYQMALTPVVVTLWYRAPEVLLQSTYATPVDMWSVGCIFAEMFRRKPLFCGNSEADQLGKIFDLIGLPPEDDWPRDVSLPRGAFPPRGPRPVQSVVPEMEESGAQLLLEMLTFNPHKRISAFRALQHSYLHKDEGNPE
# [2] = biological target: T1, Receptor-type tyrosine-protein kinase FLT3 (Homo sapiens, UniProt P36888); assay: Kinase Assay: The FLT3 inhibitory activity of the CDK4/6-FLT3 inhibitors was determined with a HTRF kinase assay. The FLT3 enzyme (GST-FLT3 fusion) was purchased from Carna Biosciences. An ULight-labeled synthetic peptide derived from human Janus kinase 1 (aa1015-1027, ULight-JAK1, PerkinElmer) was utilized as the phosphoacceptor substrate. The assay was conducted in a 384-well white OptiPlate (PerkinElmer). The 20 μL reaction mixture contained 50 nM ULight-JAK1, 116 μM ATP, 0.0385 ng/μL FLT3 and dilutions of test compounds in the kinase buffer (50 mM Hepes, pH 7.6, 1 mM EGTA, 10 mM MgCl2, 2 mM DTT, and 0.005% Tween 20). The reaction was allowed to proceed for 1 hour at room temperature and was stopped by adding 20 μL of 10 mM EDTA, 2 nM LANCE Eu-W1024 anti-phospho-tyrosine antibody in LANCE detection buffer (PerkinElmer). The plates were incubated at room temperature for 2 hours after addition of detection reagents and then read on an Envision multimode reader (PerkinElmer).
# T1 sequence (P36888 whole entry): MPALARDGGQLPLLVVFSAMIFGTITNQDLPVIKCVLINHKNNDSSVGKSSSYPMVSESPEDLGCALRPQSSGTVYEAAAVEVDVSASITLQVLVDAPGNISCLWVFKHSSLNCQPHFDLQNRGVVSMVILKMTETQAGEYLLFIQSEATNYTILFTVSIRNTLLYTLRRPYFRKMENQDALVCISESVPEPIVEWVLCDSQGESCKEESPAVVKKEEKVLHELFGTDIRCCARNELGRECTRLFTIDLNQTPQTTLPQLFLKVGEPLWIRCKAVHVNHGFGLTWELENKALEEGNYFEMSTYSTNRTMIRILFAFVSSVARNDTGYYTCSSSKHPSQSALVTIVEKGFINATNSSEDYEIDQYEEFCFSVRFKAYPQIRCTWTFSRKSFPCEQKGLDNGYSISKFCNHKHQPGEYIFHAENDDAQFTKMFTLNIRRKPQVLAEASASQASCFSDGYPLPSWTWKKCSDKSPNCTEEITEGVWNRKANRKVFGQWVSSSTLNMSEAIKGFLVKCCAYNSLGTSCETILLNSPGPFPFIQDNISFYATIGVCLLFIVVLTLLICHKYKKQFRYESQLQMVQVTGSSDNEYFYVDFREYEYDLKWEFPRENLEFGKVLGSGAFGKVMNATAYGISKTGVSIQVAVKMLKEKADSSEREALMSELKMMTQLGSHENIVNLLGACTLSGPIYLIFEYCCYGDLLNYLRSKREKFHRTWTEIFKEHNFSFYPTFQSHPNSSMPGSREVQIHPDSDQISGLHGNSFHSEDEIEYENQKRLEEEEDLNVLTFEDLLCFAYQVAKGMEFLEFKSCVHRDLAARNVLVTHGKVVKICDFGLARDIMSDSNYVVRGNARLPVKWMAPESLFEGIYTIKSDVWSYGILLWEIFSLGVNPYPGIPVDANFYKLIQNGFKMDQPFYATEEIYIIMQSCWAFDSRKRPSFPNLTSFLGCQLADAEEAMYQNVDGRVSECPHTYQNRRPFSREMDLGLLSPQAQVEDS
structure (smiles),measurement,setting,value
C[C@H]1CC[C@H](n2c3cnccc3c3cnc(Nc4ccc5c(n4)C(O)CN(CCO)C5)nc32)CC1 (some centres not stated),IC50,[1],0.0192 µM
same,IC50,[2],0.0029 µM
